Results on two molecules are retold here after US12186398B2, “Non-ionic PVP-PLA block copolymers and liquid pharmaceutical compositions derived therefrom” (ALTUS FORMULATION INC., priority 2017, dated 2025).

Read-outs that look alike come from different tables or passages of the source.

The nature of series [1]: Extrapolation to human IV 2 compartmental PK parameters. As to conditions: estimated human iv, PPI 1501 by rat difference ratio, solution from literature oral PK. From the text:
Both sets of rodent data were then extrapolated using published human FLU PK parameters to estimate the PK of FLU post IV administration of PPI 1501 or non-formulated FLU to humans.
Assuming the plasma PK profile of FLU mediated by IV PPI 1501 in the rat is translatable to human, i.e. that the same PK parameter difference ratios for FLU in PPI 1501 observed in the rat apply in humans, then the human IV PK parameters for FLU in PPI 1501 can be estimated. This may be achieved by simple multiplication of the difference ratios provided in Table 41 (last column) to again obtain the comparative human PK parameter values FLU in PPI 1501 versus those obtained from injection of the simple solution; such data may also be compared to data obtained by injecting humans with the prodrug FA (Table 42).
The human IV PK parameters of FLU in solution were estimated based on the oral PK parameters of FLU and its estimated oral bioavailability (project 1 report, Duan, 2015, Table 42, ref 3-8).

Series [2] can be described thus: Literature IV PK of FLU solution in rats (Park and Kim; Knihinicki et al). It is filed as in vivo. As to conditions: Park and Kim data fitted to 2 compartmental model. From the text: The fitted results obtained in the JRF study were then compared to those in the literature, generated after administering a non-micellar low concentration simple FLU solution IV to rats. This was undertaken to determine potential differences in FLU pharmacokinetics induced by the micellar formulation.
The results from the JRF study were then compared to literature values for FLU PK administered as an IV solution as generated by Park and Kim (1) and Knihinicki et al (2); the comparison is shown in Table 39.
For comparative purposes, the rat PK data for a FLU solution generated by Park and Kim (1) were also fitted to the 2 compartmental model (FIG. 22 and Table 41).

The test system of series [3] is Human red blood cells (RBC). Kind of series: In vitro haemolysis. It is filed as cell-based. As to conditions: 5 mg/mL, 37° C., 60 min.
Experimental: For example suspended RBCs isolated from whole human blood may be mixed with non-formulated cargo molecules or test formulations comprising the cargo molecule at a given final concentration with respect to the cargo molecule incubated at 37° C. for 60 minutes, and centrifuged to remove intact RBCs. […] Human red blood cells (RBC) were isolated by centrifugation from whole blood collected in vaccutainer containing EDTA. […] Freeze-dried formulations were reconstituted in water and then diluted to the desired concentrations with PBS.
The conditions of series [4]: FLU solution, rats, IV […], NCA, cited from earlier work.
For series [5] the following is noted: human iv FA, values from project 1 report; cited from earlier work.

Regarding `CC(C(=O)O)c1ccc(-c2ccccc2)c(F)c1` (stereo not drawn) [FLU, flurbiprofen], in series [1], the CL was 0.967 L/h, the CL2 was 0.343 L/h, the “MRT (est. based on 2 compartment model)” value is 7.43 h and the V is given as 4.984 L. For the same molecule, the V2 in series [1] is on record as 2.199 L. In series [2] (IV […]), this molecule gave a t1/2Alpha of 5.4 min and a t1/2Beta of 2.73 h. Further, in series [2] (rat, plasma, IV 2.5 mg/kg), the AUC(0-inf) (usually the area under the concentration-time curve extrapolated to infinity) amounted to 51400 ng·h/mL; the AUC(0-t) (usually the area under the concentration-time curve up to a stated or last time point) worked out at 45300 ng·h/mL; the C0 is 49800 ng/mL; the MRT (as a rule, a mean duration of stay, worked out from the concentration-time curve) stood at 3.57 h. Also, the clearance (usually the volume of plasma or blood freed of the substance per unit of time) in series [2] (rat, plasma, IV 2.5 mg/kg) was 0.81 mL/min/kg. In series [2] (rat, plasma, IV 2.5 mg/kg, read-out: Vss), the Vd turned out to be 0.174 L/kg. Further, the “absorbance at 540 nm” value in series [3] stood at 0.54±0.03. The molecule also yielded a percent haemolysis in series [3] (triplicate ± standard deviation) of 92.1±17.2%. Further, in series [4] (Knihinicki et al), the Vss – broadly, a proportionality between amount in the body and measured concentration, not a real space – is 0.22 L/kg; the volume of distribution (Vz) – broadly, the apparent volume that relates the amount in the body to the concentration in plasma or blood – was 0.239 L/kg; the t1/2 is given as 3.07 h. Further, in series [4] (Park & Kim), the Vss was 0.15678 L/kg, the Vz was 0.19231 L/kg and the t1/2 is on record as 2.78 h.

As to flurbiprofen axetil [FA], in series [5], the CL is 1.14 L/h, the CL2 was 4.40 L/h, the Ka is 58 h⁻¹ and the “MRT (est. based on 2 compartment model)” value was 7.36 h. In series [5], the V was 5.11 L and the V2 is on record as 3.28 L.
